# Values of other authors as cited in patent US20040132663A1 (University of Utah Research Foundation, priority 2000, published 2004).
# Details: in vivo
substance,measurement,value
contulakin-G,potency in inhibiting pain relative to neurotensin,significantly more potent than neurotensin
